Source: US6991685B2, “Low temperature cleaning” (Ecolab Inc., priority 2003, dated 2006)
Read-outs that look alike come from different tables or passages of the source.

Legend:
[1] = tested on: yeast-mold isolate (1/3 black fungal isolate, 1/3 gray fungal isolate, 1/3 Yarrowia lipolytica); assay type: cell-based, yeast-mold isolate from a beverage plant
[2] = tested on: yeast-mold isolate; assay: Coupon testing for bio-load removal study (five step sanitation program); assay type: cell-based, yeast-mold isolate from a beverage plant; settings: silicon rubber coupon pre-treated with the labelled agent, inoculated, then five step sanitation program (2600 ppm Vortexx, 40° C., 15 minutes)
Procedure: The same yeast-mold isolates as in the antimicrobial treatment method were grown up for inoculation onto the coupons. The coupons were inoculated with the isolates. The coupons were then subjected to the inventive five step method involving an initial rinse step, a detergent wash step, an intermediate rinse step, an antimicrobial treatment step, and a final rinse step. The coupons were first placed in 1000 ml of ambient water for 10 minutes. The coupons were then placed in 1000 ml of a wash solution for 60 minutes. The coupons were then placed in a 2600 ppm solution Vortexx™ at 40° C. for 15 minutes. Finally, the coupons were placed in a jar containing sterile water. The carriers were than placed in 25 ml of 0.5% sodium thiosulfate neutralizing solution to suspend any surviving organisms. The neutralizing solution was then filtered and plated on Sabouraud's Dextrose Agar in order to determine the number of surviving organisms.

[3] = 185 F. water, 15 minute contact, Stainless Steel coupon, no pre-treatment

Compound: O [185 F. Water, water]
- Percent Reduction ([1]; 185 F. water, 15-minute contact, BUNA N coupon, pH 2.3 phosphoric acid 104 F. 2 weeks): >99.5%
- Percent Reduction ([1]; 185 F. water, 15-minute contact, BUNA N coupon, pH 13 caustic 185 F. 2 weeks): >99.8%
- Filter Survivors [1, 3]: <1 CFU
- Percent Reduction [1, 3]: >99.9%
- log reduction ([1]; stainless steel coupon, not preconditioned, Table 2 treatments): 3 log
- Percent Reduction (avg of 3) [2]: 38.3%
- log reduction ([2]; listed as 185° F. Water): <1 log
- log reduction ([2]; listed as 185° F. water): 1 log
